According to publication PMC9332213, “Simple Detection of DNA Methyltransferase with an Integrated Padlock Probe” (Biosensors, 2022):

Target: T1, M.SssI (Spiroplasma monobiae, UniProt P15840)
T1 construct: gene sssIM
Assay: padlock probe/RCA fluorescence methyltransferase activity assay with commercial M.SssI ([…] U/mL)
Format: biochemical

T1 sequence (P15840 whole entry): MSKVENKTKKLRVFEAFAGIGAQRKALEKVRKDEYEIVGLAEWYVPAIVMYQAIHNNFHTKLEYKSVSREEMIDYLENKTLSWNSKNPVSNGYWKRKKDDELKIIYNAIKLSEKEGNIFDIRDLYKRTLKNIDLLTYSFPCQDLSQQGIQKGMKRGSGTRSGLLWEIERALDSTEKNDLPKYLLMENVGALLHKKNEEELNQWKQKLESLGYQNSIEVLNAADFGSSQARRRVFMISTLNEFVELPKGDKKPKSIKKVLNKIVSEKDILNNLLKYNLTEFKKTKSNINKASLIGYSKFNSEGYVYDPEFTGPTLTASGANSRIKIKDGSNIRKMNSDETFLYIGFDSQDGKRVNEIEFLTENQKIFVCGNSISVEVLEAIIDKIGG

IC50	Compound
4.91 µM	Nc1ncn([C@@H]2O[C@H](CO)[C@@H](O)[C@H]2O)c(=O)n1 [5-Aza, 5-Azacytidine]
8.84 µM	O=c1[nH]cc(F)c(=O)[nH]1 [5-F, 5-fluorouracil]
